# Results: patent US20250195484A1, “CEREBLON LIGANDS AND USES THEREOF” (priority 2022, published 2025)
# Target: T1, P300 (Homo sapiens, UniProt Q09472)
# T1 construct: endogenous in cells; host or cells: 22Rv1
# Test: P300 degradation, western blot, 22Rv1
# Format: cell-based
# Details: 22Rv1, 5 h
# Description: (§1) WesternT Blot Analysis. Western blot analysis was performed essentially as described previously. The cells treated with indicated compounds were lysed in Radioimmunoprecipitation Assay Protein Lysis and Extraction Buffer (25 mmol/L Tris.HCl, pH 7.6, 150 mmol/L NaCl, 1% Nonidet P-40, 1% sodium deoxycholate, and 0.1% sodium dodecyl sulfate) containing proteinase inhibitor cocktail (Roche Diagnostics, Mannheim, Germany). Equal amounts of total protein were electrophoresed through 10% SDS-polyacrylamide gels after determination of protein concentration by BCA assay (Fisher Scientific, Pittsburgh, PA). The separated protein bands were transferred onto PVDF membranes (GE Healthcare Life Sciences, Marlborough, MA) and blotted against different antibodies, as indicated. The blots were scanned, and the band intensities were quantified using GelQuant.NET software provided by biochemlabsolutions.com. The relative mean intensity of target proteins was expressed after normalization to the intensity of glyceraldehyde-3-phosphate dehydrogenase bands.
# T1 sequence (Q09472 whole entry): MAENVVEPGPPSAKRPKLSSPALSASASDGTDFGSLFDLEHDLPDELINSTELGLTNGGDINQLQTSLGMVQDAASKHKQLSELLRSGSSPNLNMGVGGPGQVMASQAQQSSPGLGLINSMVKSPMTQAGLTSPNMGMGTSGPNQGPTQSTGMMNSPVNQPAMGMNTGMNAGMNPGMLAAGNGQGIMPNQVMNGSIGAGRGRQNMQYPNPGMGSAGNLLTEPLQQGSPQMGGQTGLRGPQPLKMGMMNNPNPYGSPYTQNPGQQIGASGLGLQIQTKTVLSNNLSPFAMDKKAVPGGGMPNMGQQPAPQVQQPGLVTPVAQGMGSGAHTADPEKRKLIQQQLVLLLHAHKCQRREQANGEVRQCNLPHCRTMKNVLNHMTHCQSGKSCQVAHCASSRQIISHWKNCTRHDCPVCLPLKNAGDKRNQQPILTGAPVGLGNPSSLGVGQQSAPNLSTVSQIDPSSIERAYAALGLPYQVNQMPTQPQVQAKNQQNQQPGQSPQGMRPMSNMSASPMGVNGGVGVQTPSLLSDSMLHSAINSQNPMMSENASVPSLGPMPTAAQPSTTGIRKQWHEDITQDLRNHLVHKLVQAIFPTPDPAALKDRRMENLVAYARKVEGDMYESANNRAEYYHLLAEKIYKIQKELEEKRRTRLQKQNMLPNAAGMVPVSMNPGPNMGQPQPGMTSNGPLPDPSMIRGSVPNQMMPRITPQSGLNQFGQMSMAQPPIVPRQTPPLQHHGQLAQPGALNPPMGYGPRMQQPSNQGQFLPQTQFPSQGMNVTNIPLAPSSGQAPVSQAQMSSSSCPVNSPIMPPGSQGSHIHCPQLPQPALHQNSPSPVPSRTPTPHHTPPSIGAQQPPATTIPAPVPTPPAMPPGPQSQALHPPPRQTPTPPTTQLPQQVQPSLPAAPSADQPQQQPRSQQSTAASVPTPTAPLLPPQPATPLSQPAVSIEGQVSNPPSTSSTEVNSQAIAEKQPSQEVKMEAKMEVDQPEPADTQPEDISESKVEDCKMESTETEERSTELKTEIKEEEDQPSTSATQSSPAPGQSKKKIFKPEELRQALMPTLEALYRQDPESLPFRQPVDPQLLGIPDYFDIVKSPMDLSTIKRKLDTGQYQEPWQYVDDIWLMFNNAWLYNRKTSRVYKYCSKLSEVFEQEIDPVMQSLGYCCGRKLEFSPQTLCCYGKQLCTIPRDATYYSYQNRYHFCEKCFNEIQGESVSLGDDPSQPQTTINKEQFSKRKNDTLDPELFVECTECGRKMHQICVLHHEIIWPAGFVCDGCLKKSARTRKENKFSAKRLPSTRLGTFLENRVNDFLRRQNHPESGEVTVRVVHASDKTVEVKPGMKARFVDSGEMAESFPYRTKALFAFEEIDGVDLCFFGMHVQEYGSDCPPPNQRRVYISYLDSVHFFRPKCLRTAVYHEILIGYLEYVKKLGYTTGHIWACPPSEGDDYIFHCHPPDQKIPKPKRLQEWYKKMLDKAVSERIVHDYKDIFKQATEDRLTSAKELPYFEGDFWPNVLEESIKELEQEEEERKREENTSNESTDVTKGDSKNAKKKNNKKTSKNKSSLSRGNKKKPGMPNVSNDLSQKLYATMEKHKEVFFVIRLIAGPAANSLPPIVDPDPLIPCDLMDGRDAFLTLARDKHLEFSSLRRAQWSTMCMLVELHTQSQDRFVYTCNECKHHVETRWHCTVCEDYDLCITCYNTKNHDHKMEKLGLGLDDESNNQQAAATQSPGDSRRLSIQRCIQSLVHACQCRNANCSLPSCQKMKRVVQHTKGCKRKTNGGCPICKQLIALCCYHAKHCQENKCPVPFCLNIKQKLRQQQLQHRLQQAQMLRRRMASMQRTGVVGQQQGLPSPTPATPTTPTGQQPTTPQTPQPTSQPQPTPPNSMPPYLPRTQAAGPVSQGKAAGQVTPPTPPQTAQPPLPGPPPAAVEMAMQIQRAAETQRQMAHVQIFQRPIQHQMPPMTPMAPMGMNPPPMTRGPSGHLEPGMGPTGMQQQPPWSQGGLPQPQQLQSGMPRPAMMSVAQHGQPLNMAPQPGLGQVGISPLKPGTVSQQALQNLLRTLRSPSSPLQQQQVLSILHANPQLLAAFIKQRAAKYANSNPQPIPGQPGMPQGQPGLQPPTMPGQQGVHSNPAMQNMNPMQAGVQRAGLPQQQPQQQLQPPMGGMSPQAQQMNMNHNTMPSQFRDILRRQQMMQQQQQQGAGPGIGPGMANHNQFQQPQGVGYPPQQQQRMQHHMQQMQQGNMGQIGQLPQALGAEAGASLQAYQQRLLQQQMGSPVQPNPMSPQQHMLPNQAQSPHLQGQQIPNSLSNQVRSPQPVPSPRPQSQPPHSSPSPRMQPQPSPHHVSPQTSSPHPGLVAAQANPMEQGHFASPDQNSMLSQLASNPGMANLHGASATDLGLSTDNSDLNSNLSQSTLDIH
SMILES,DC50,P300 Degradation DCmax
"CC(=O)N1CCc2c(c(N3CCCc4cc(-c5cnn(C)c5)c(C(F)F)cc43)nn2C2CCN(CC(=O)N3CCC4(CC3)COc3c4ccc4c3CN([C@H]3CCC(=O)NC3=O)C4=O)CC2)C1 [CPD-001, (S)-3-(1′-(2-(4-(5-acetyl-3-(7-(difluoromethyl)-6-(1-methyl-1H-pyrazol-4-yl)-3,4-dihydroquinolin-1(2H)-yl)-4,5,6,7-tetrahydro-1H-pyrazolo[4,3-c]pyridin-1-yl)piperidin-1-yl)acetyl)-6-oxo-6,8-dihydro-2H,7H-spiro[furo[2,3-e]isoindole-3,4′-piperidin]-7-yl)piperidine-2,6-dione]",0.0001 to 0.001 µM,A (A (≥90%))
"CC(=O)N1CCc2c(c(N3CCCc4cc(-c5cnn(C)c5)c(C(F)F)cc43)nn2C2CCN(C(=O)CN3CCC4(CC3)COc3c4ccc4c3CN([C@H]3CCC(=O)NC3=O)C4=O)CC2)C1 [CPD-002, (S)-3-(1′-(2-(4-(5-acetyl-3-(7-(difluoromethyl)-6-(1-methyl-1H-pyrazol-4-yl)-3,4-dihydroquinolin-1(2H)-yl)-4,5,6,7-tetrahydro-1H-pyrazolo[4,3-c]pyridin-1-yl)piperidin-1-yl)-2-oxoethyl)-6-oxo-6,8-dihydro-2H,7H-spiro[furo[2,3-e]isoindole-3,4′-piperidin]-7-yl)piperidine-2,6-dione]",< 0.0001 µM,A (A (≥90%))
"CC(=O)N1CCc2c(c(N3CCCc4cc(-c5cnn(C)c5)c(C(F)F)cc43)nn2C2CCC(N3CCC4(CC3)COc3c4ccc4c3CN([C@H]3CCC(=O)NC3=O)C4=O)CC2)C1 (stereo partly drawn) [CPD-003, (S)-3-(1′-(4-(5-acetyl-3-(7-(difluoromethyl)-6-(1-methyl-1H-pyrazol-4-yl)-3,4-dihydroquinolin-1(2H)-yl)-4,5,6,7-tetrahydro-1H-pyrazolo[4,3-c]pyridin-1-yl)cyclohexyl)-6-oxo-6,8-dihydro-2H,7H-spiro[furo[2,3-e]isoindole-3,4′-piperidin]-7-yl)piperidine-2,6-dione]",< 0.0001 µM,A (A (≥90%))
"CC(=O)N1CCc2c(c(N3CCCc4cc(-c5cnn(C)c5)c(C(F)F)cc43)nn2[C@H]2CC[C@H](CN3CCC4(CC3)COc3c4ccc4c3CN([C@H]3CCC(=O)NC3=O)C4=O)CC2)C1 [CPD-004, (S)-3-(1′-(((1r,4S)-4-(5-acetyl-3-(7-(difluoromethyl)-6-(1-methyl-1H-pyrazol-4-yl)-3,4-dihydroquinolin-1(2H)-yl)-4,5,6,7-tetrahydro-1H-pyrazolo[4,3-c]pyridin-1-yl)cyclohexyl)methyl)-6-oxo-6,8-dihydro-2H,7H-spiro[furo[2,3-e]isoindole-3,4′-piperidin]-7-yl)piperidine-2,6-dione]",< 0.0001 µM,A (A (≥90%))

# Target: CRBN/DDB1 (Homo sapiens, UniProt Q96SW2)
# Test: biochemical
# Details: not given
row,SMILES,IC50
1,"O=C1CCC(N2Cc3cc4c(cc3C2=O)OCC42CCNCC2)C(=O)N1 (stereo not shown) [Compound A1, 3-(7-oxo-5,7-dihydro-2H,6H-spiro[furo[2,3-f]isoindole-3,4′-piperidin]-6-yl)piperidine-2,6-dione]",0.94 µM
2,"O=C1CCC(N2Cc3cc4c(cc3C2=O)CCOC42CCNCC2)C(=O)N1 (stereo not shown) [Compound A3, 3-(1′-oxo-1′,3′,7′,8′-tetrahydro-2′H-spiro[piperidine-4,5′-pyrano[3,4-f]isoindol]-2′-yl)piperidine-2,6-dione]",0.27 µM
3,"CN1CCC2(CC1)COc1cc3c(cc12)CN(C1CCC(=O)NC1=O)C3=O (stereo not shown) [Compound A4, 3-(1′-methyl-7-oxo-5,7-dihydro-2H,6H-spiro[furo[2,3-f]isoindole-3,4′-piperidin]-6-yl)piperidine-2,6-dione]",0.096 µM
4,"CC(=O)N1CCC2(CC1)COc1cc3c(cc12)CN(C1CCC(=O)NC1=O)C3=O (stereo not shown) [Compound A5, 3-(1′-acetyl-7-oxo-5,7-dihydro-2H,6H-spiro[furo[2,3-f]isoindole-3,4′-piperidin]-6-yl)piperidine-2,6-dione]",3.8 µM
5,"CN1CCC2(CC1)OCCc1cc3c(cc12)CN(C1CCC(=O)NC1=O)C3=O (stereo not shown) [Compound A6, 3-(1-methyl-1′-oxo-1′,3′,7′,8′-tetrahydro-2′H-spiro[piperidine-4,5′-pyrano[3,4-f]isoindol]-2′-yl)piperidine-2,6-dione]",2.2 µM
6,"CC(=O)N1CCC2(CC1)OCCc1cc3c(cc12)CN(C1CCC(=O)NC1=O)C3=O (stereo not shown) [Compound A7, 3-(1-acetyl-1′-oxo-1′,3′,7′,8′-tetrahydro-2′H-spiro[piperidine-4,5′-pyrano[3,4-f]isoindol]-2′-yl)piperidine-2,6-dione]",3 µM
7,"O=C1CCC(N2Cc3c(ccc4c3OCC43CCCNCC3)C2=O)C(=O)N1 (stereo not shown) [Compound A8, 3-(6′-oxo-6′,8′-dihydro-2′H,7′H-spiro[azepane-4,3′-furo[2,3-e]isoindol]-7′-yl)piperidine-2,6-dione]",0.75 µM
8,"O=C1CCC(N2Cc3c(ccc4c3OCC43CCNC3)C2=O)C(=O)N1 (stereo not shown) [Compound A9, 3-(6-oxo-6,8-dihydro-2H,7H-spiro[furo[2,3-e]isoindole-3,3′-pyrrolidin]-7-yl)piperidine-2,6-dione]",0.21 µM
9,"CC(C)(C)OC(=O)N1CCC2(CC1)COc1cc3c(cc12)CN(C1CCC(=O)NC1=O)C3=O (stereo not shown) [Compound A14, tert-butyl 6-(2,6-dioxopiperidin-3-yl)-7-oxo-6,7-dihydro-2H,5H-spiro[furo[2,3-f]isoindole-3,4′-piperidine]-1′-carboxylate]",0.29 µM
10,"O=C1CC[C@H](N2Cc3c(ccc4c3OCC43CCNCC3)C2=O)C(=O)N1 [Compound A15, (S)-3-(6-oxo-6,8-dihydro-2H,7H-spiro[furo[2,3-e]isoindole-3,4′-piperidin]-7-yl)piperidine-2,6-dione]",0.055 µM
11,"O=C1CCC(N2Cc3c(ccc4c3OCC43CCNCC3(F)F)C2=O)C(=O)N1 (stereo not shown) [Compound A17, 3-(3′,3′-difluoro-6-oxo-6,8-dihydro-2H,7H-spiro[furo[2,3-e]isoindole-3,4′-piperidin]-7-yl)piperidine-2,6-dione]",0.23 µM
12,"O=C1CC[C@H](NC(=O)c2ccc3c(n2)OCC32CCNCC2)C(=O)N1 [Compound A18, (S)-N-(2,6-dioxopiperidin-3-yl)-2H-spiro[furo[2,3-b]pyridine-3,4′-piperidine]-6-carboxamide]",> 10000 µM
13,"Cc1cc2c(c3c1C(=O)N([C@H]1CCC(=O)NC1=O)C3)OCC21CCNCC1 [Compound A19, (S)-3-(5-methyl-6-oxo-6,8-dihydro-2H,7H-spiro[furo[2,3-e]isoindole-3,4′-piperidin]-7-yl)piperidine-2,6-dione]",0.18 µM
14,"O=C1CC[C@H](N2Cc3c4c(cc(Cl)c3C2=O)C2(CCNCC2)CO4)C(=O)N1 [Compound A20, (S)-3-(5-chloro-6-oxo-6,8-dihydro-2H,7H-spiro[furo[2,3-e]isoindole-3,4′-piperidin]-7-yl)piperidine-2,6-dione]",0.038 µM
15,"COc1cc2c(c3c1C(=O)N([C@H]1CCC(=O)NC1=O)C3)OCC21CCNCC1 [Compound A21, (S)-3-(5-methoxy-6-oxo-6,8-dihydro-2H,7H-spiro[furo[2,3-e]isoindole-3,4′-piperidin]-7-yl)piperidine-2,6-dione]",0.17 µM
16,"COc1cc2c(c3c1C(=O)N([C@@H]1CCC(=O)NC1=O)C3)OCC21CCNCC1 [Compound A22, (R)-3-(5-methoxy-6-oxo-6,8-dihydro-2H,7H-spiro[furo[2,3-e]isoindole-3,4′-piperidin]-7-yl)piperidine-2,6-dione]",3.9 µM

# Target: T2, CBP (Homo sapiens, UniProt Q92793)
# T2 construct: endogenous in cells; host or cells: 22Rv1
# T2 sequence (Q92793 whole entry): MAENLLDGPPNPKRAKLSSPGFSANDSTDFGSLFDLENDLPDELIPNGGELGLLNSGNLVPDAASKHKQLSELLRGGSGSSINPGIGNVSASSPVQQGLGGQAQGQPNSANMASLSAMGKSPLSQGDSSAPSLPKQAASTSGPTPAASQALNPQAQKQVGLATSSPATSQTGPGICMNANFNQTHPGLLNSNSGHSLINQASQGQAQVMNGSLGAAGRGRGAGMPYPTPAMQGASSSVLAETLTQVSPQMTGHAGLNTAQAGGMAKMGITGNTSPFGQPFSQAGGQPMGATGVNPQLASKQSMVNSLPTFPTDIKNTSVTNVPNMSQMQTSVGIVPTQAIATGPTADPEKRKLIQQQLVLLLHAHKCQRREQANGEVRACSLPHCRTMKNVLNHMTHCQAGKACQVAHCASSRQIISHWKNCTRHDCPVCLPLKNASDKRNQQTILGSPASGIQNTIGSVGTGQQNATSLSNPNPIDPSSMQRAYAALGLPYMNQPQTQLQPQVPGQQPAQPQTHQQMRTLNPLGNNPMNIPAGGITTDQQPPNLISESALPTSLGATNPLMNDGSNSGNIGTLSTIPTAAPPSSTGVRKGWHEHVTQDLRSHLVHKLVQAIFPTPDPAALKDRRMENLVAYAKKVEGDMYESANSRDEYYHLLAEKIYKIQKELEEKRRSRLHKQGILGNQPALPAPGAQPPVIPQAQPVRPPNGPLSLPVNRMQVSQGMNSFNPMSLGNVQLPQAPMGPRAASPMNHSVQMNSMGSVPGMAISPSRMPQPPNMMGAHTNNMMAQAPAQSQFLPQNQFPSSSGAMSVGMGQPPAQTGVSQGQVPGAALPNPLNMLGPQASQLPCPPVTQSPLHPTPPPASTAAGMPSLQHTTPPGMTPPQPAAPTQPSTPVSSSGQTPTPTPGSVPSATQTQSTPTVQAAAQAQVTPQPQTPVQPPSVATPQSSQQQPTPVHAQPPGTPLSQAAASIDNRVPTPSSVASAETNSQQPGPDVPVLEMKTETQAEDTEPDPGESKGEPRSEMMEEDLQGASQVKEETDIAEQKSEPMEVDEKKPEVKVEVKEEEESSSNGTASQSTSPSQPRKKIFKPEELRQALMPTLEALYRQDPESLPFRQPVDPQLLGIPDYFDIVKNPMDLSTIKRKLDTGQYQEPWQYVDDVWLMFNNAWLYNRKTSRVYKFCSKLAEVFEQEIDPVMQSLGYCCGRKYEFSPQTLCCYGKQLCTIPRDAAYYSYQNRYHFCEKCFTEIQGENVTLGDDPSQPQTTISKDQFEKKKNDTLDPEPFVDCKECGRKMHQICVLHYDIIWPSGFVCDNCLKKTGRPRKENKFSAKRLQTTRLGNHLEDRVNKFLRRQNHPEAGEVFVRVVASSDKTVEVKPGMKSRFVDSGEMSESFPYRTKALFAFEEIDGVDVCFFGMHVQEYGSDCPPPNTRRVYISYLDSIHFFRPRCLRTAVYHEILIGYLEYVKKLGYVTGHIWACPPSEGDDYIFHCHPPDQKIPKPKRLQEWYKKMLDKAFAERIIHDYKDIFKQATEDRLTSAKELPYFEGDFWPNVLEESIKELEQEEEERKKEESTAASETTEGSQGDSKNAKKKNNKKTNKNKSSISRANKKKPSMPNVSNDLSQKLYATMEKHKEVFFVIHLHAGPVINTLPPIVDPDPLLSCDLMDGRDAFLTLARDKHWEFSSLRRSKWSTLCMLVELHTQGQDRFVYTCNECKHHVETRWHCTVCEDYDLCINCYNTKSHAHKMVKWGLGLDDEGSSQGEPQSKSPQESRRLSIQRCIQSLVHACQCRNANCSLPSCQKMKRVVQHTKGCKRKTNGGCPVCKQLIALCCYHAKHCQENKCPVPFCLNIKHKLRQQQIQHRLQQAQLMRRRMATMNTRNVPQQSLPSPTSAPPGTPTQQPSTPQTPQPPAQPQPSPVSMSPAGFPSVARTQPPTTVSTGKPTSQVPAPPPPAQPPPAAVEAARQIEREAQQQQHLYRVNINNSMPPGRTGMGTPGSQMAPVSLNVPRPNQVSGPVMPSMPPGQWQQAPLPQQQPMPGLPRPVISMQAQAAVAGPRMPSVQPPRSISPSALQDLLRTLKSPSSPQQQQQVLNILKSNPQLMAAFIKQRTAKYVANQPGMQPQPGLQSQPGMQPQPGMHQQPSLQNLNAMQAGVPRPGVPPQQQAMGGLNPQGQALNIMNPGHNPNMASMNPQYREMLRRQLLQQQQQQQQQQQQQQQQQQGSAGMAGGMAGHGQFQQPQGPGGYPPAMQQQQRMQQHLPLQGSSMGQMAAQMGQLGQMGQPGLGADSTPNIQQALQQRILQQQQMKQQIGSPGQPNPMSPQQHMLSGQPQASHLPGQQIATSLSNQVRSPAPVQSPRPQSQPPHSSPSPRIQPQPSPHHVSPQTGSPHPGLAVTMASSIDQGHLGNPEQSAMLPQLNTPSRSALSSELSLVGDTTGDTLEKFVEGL
# Test: CBP degradation, western blot, 22Rv1
# Format: cell-based
# Details: 22Rv1, 5 h
# Description: as §1
SMILES,CBP Degradation DCmax,DC50
"CC(=O)N1CCc2c(c(N3CCCc4cc(-c5cnn(C)c5)c(C(F)F)cc43)nn2C2CCN(CC(=O)N3CCC4(CC3)COc3c4ccc4c3CN([C@H]3CCC(=O)NC3=O)C4=O)CC2)C1 [CPD-001, (S)-3-(1′-(2-(4-(5-acetyl-3-(7-(difluoromethyl)-6-(1-methyl-1H-pyrazol-4-yl)-3,4-dihydroquinolin-1(2H)-yl)-4,5,6,7-tetrahydro-1H-pyrazolo[4,3-c]pyridin-1-yl)piperidin-1-yl)acetyl)-6-oxo-6,8-dihydro-2H,7H-spiro[furo[2,3-e]isoindole-3,4′-piperidin]-7-yl)piperidine-2,6-dione]",A (A (≥90%)),< 0.0001 µM
"CC(=O)N1CCc2c(c(N3CCCc4cc(-c5cnn(C)c5)c(C(F)F)cc43)nn2C2CCN(C(=O)CN3CCC4(CC3)COc3c4ccc4c3CN([C@H]3CCC(=O)NC3=O)C4=O)CC2)C1 [CPD-002, (S)-3-(1′-(2-(4-(5-acetyl-3-(7-(difluoromethyl)-6-(1-methyl-1H-pyrazol-4-yl)-3,4-dihydroquinolin-1(2H)-yl)-4,5,6,7-tetrahydro-1H-pyrazolo[4,3-c]pyridin-1-yl)piperidin-1-yl)-2-oxoethyl)-6-oxo-6,8-dihydro-2H,7H-spiro[furo[2,3-e]isoindole-3,4′-piperidin]-7-yl)piperidine-2,6-dione]",A (A (≥90%)),< 0.0001 µM
"CC(=O)N1CCc2c(c(N3CCCc4cc(-c5cnn(C)c5)c(C(F)F)cc43)nn2C2CCC(N3CCC4(CC3)COc3c4ccc4c3CN([C@H]3CCC(=O)NC3=O)C4=O)CC2)C1 (stereo partly drawn) [CPD-003, (S)-3-(1′-(4-(5-acetyl-3-(7-(difluoromethyl)-6-(1-methyl-1H-pyrazol-4-yl)-3,4-dihydroquinolin-1(2H)-yl)-4,5,6,7-tetrahydro-1H-pyrazolo[4,3-c]pyridin-1-yl)cyclohexyl)-6-oxo-6,8-dihydro-2H,7H-spiro[furo[2,3-e]isoindole-3,4′-piperidin]-7-yl)piperidine-2,6-dione]",A (A (≥90%)),< 0.0001 µM
"CC(=O)N1CCc2c(c(N3CCCc4cc(-c5cnn(C)c5)c(C(F)F)cc43)nn2[C@H]2CC[C@H](CN3CCC4(CC3)COc3c4ccc4c3CN([C@H]3CCC(=O)NC3=O)C4=O)CC2)C1 [CPD-004, (S)-3-(1′-(((1r,4S)-4-(5-acetyl-3-(7-(difluoromethyl)-6-(1-methyl-1H-pyrazol-4-yl)-3,4-dihydroquinolin-1(2H)-yl)-4,5,6,7-tetrahydro-1H-pyrazolo[4,3-c]pyridin-1-yl)cyclohexyl)methyl)-6-oxo-6,8-dihydro-2H,7H-spiro[furo[2,3-e]isoindole-3,4′-piperidin]-7-yl)piperidine-2,6-dione]",A (A (≥90%)),< 0.0001 µM

# Target: T3, STAT3 (Homo sapiens, UniProt P40763)
# T3 construct: host or cells: HeLa (STAT3-HiBiT CRISPR knock-in clone)
# Test: STAT3 degradation HiBiT assay (STAT3-HIBIT KI HeLa)
# Format: cell-based
# Details: STAT3-HIBIT KI HeLa cells, 24 hours
# Description: STAT3-HIBIT KI HeLa cell line was purchased from Promega. This cell line is a clone created by using CRISPR-Cas9 to fuse HiBIT to the 3′ end of STAT3 in HeLa cells. DMEM medium and FBS were purchased from Gibco/Thermo Fisher Scientific. STAT3 degradation was determined based on quantification of luminescent signal using Nano-Glo HiBIT Lytic Detection System. In a typical procedure, cells seeded at 20000 cells per well in 96-well white plates (Corning) were incubated with serially diluted compounds for 24 hours at 37° C. with 5% CO2. At the end of treatment, Nano-Glo HiBIT Lytic Detection reagents was added to the wells and luminescence was acquired on TECAN PSARK plate reader. Untreated cells were used as control. Data points were fit with a four-parameter equation to generate a concentration-response curve. IC50 values were calculated using a nonlinear regression analysis of the mean±SD from triplicate.
SMILES,DC50,Dmax
"NC(=O)CC[C@H](NC(=O)[C@@H]1CC[C@@H]2CCN(C(=O)CCCCC(=O)N3CCC4(CC3)COc3c4ccc4c3CN([C@H]3CCC(=O)NC3=O)C4=O)C[C@H](NC(=O)c3cc4cc(C(F)(F)P(=O)(O)O)ccc4s3)C(=O)N21)C(=O)NC(c1ccccc1)c1ccccc1 [STD 22, ((2-(((5S,8S,10aR)-8-(((S)-5-amino-1-(benzhydrylamino)-1,5-dioxopentan-2-yl)carbamoyl)-3-(6-(7-((S)-2,6-dioxopiperidin-3-yl)-6-oxo-7,8-dihydro-2H,6H-spiro[furo[2,3-e]isoindole-3,4′-piperidin]-1′-yl)-6-oxohexanoyl)-6-oxodecahydropyrrolo[1,2-a][1,5]diazocin-5-yl)carbamoyl)benzo[b]thiophen-5-yl)difluoromethyl)phosphonic acid]",1 to 10 µM,< 40%
